Results: publication PMC11480511 (Scientific Reports, 2024)
Converted amounts (≈) assume the structure as drawn.

What was measured:
SK-MEL-28 = test: NCI single-dose growth inhibition screen; format: cell-based; details: Homo sapiens; Melanoma SK-MEL-28; single dose 10^−5 M
RXF 393 = test: NCI single-dose growth inhibition screen; format: cell-based; details: Homo sapiens; Renal Cancer RXF 393; single dose 10^−5 M
NCI-H322M = test: NCI single-dose growth inhibition screen; format: cell-based; details: Homo sapiens; Non-Small Cell Lung Cancer NCI-H322M; single dose 10^−5 M
DU-145 = test: NCI single-dose growth inhibition screen; format: cell-based; details: Homo sapiens; Prostate Cancer DU-145; single dose 10^−5 M
[1] = test system: A498 renal cancer cell line; test: cells; details: Homo sapiens
IGROV1 = test: NCI single-dose growth inhibition screen; format: cell-based; details: Homo sapiens, IGROV-1; Ovarian Cancer IGROV1; single dose 10^−5 M
A549/ATCC = test: NCI single-dose growth inhibition screen; format: cell-based; details: Homo sapiens; Non-Small Cell Lung Cancer A549/ATCC; single dose 10^−5 M
K-562 = test: NCI single-dose growth inhibition screen; format: cell-based; details: Homo sapiens, K562; Leukemia K-562; single dose 10^−5 M
HOP-62 = test: NCI single-dose growth inhibition screen; format: cell-based; details: Homo sapiens; Non-Small Cell Lung Cancer HOP-62; single dose 10^−5 M
NCI-H522 = test: NCI single-dose growth inhibition screen; format: cell-based; details: Homo sapiens; Non-Small Cell Lung Cancer NCI-H522; single dose 10^−5 M
SK-MEL-2 = test: NCI single-dose growth inhibition screen; format: cell-based; details: Homo sapiens; Melanoma SK-MEL-2; single dose 10^−5 M
HL-60(TB) = test: NCI single-dose growth inhibition screen; format: cell-based; details: Homo sapiens; Leukemia HL-60(TB); single dose 10^−5 M
OVCAR-4 = test: NCI single-dose growth inhibition screen; format: cell-based; details: Homo sapiens; Ovarian Cancer OVCAR-4; single dose 10^−5 M
S. aureus ATCC 6538 = test: Antibacterial screening, agar cup diffusion method; format: cell-based; details: Staphylococcus aureus, ATCC6538; Gram + ve strain; read-out: Minimum inhibitory concentrations (MIC, µM) S. aureus ATCC 6538
SK-MEL-5 = test: NCI single-dose growth inhibition screen; format: cell-based, human; details: Homo sapiens, SK-MEL-5, Melanoma SK-MEL-5; single dose 10^−5 M
topoisomerase IIβ = molecular target: T1, topoisomerase IIβ (Homo sapiens, UniProt Q02880); test: Topoisomerase II inhibition, human DNA topoisomerase Elisa kit; format: biochemical; details: ± SEM; read-out: Topoisomerase II IC50 µM ± SEM
T1 construct: purchased
T1 sequence (Q02880 whole entry): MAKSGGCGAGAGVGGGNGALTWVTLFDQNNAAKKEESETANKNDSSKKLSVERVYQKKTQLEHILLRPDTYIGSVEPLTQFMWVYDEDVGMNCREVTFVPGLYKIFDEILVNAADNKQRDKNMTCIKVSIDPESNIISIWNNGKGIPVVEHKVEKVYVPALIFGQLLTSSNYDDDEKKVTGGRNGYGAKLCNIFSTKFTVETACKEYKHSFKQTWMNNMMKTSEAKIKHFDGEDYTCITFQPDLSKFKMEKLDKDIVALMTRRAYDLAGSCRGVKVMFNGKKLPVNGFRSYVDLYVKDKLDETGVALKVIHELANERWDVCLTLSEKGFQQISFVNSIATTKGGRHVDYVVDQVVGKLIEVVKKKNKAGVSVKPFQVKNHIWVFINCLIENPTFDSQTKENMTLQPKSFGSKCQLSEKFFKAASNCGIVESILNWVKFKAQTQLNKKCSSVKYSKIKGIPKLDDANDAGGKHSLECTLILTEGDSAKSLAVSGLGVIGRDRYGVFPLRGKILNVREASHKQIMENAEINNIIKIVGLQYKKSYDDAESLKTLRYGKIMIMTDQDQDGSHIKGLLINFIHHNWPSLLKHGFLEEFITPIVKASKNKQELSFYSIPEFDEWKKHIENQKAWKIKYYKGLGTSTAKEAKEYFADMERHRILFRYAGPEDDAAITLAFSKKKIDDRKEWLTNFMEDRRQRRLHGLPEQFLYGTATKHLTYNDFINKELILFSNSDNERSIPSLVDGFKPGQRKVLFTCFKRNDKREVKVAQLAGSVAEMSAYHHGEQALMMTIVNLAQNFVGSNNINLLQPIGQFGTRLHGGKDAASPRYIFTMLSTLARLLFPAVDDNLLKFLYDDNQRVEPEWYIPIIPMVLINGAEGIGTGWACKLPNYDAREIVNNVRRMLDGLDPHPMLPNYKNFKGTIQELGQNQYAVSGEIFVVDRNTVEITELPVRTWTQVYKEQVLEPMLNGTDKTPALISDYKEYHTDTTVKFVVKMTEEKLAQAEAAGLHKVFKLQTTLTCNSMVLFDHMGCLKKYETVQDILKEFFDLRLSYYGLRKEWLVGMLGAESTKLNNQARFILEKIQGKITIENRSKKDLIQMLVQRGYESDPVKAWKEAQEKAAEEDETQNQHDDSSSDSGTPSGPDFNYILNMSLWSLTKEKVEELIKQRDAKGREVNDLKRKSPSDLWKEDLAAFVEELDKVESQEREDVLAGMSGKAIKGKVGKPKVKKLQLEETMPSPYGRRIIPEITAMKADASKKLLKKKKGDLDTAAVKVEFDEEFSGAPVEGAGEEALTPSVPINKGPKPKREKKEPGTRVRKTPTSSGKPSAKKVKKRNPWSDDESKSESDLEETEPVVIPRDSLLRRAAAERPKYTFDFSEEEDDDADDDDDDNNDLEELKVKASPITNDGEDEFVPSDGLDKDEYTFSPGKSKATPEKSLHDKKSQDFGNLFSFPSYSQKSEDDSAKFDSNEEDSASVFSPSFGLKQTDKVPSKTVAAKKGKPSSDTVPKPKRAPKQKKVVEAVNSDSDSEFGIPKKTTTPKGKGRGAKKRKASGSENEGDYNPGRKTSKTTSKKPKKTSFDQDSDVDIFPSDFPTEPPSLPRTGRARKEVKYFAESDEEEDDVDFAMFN
Description: Two folds of serial dilution was accomplished after standards and the tested compounds were dissolved in sample diluent. Horseradish peroxidase (HRP-avidin) and biotin-conjugated antibody were diluted 10 times each. Each well received 100 µL of each concentration of the standard or test chemicals, which were then added and incubated at 37 °C for 60 min. […] The microtiter plate was rinsed three times and given room to aspirate. After that, the plate was incubated at 37 °C for 60 min with 100 µL of HRP-avidin solution added to each well. After that, the plate was aspirated and cleaned 5 times. Each well received 90 µL of TMB substrate, and the plate was incubated for 30 min. at 37 °C in a light-protected environment. Finally, stop solution (50 µL) was loaded, and within 5 min, the absorbance at 450 nm was measured spectrophotometrically.
Topoisomerase enzyme assay
Topoisomerase I and II inhibitory activity […]
topoisomerase IIβ inhibitory activity utilizing the human DNA topoisomerase Elisa kit.
Standards and the tested compound were dissolved in sample diluent and 2 folds serial dilution was achieved. Biotin-conjugated antibody and avidin conjugated Horseradish Peroxidase (HRP-avidin) were diluted to 10 folds. 100 μL of each concentration of standard or test compound were added to each well. Incubate at 37 °C for 1 h. The liquid in each well was removed. 10 0 μL of Biotin-conjugated antibody solution was added to each well followed by incubation for 1 h at 37 °C. The microtiter plate was allowed to aspirate and washed 3 times. 100 μL of avidin conjugated Horseradish Peroxidase (HRP -avidin) solution was added to each well and the plate was incubated for 1 h at 37 °C. The plate was aspirated and washed 5 times. 90 μL of TMB substrate were added to each well and the plate was incubated for 30 min at 37 °C and protected from light. 50 μL stop so lution was added. The absorbance was measured spectrophotometrically within 5 min at 450 nm .

UACC-257 = test: NCI single-dose growth inhibition screen; format: cell-based; details: Homo sapiens; Melanoma UACC-257; single dose 10^−5 M
MDA-MB-435 = test: NCI single-dose growth inhibition screen; format: cell-based; details: Homo sapiens; Melanoma MDA-MB-435; single dose 10^−5 M
E. coli ATCC 25,922 = test: Antibacterial screening, agar cup diffusion method; format: cell-based; details: Escherichia coli, ATCC25, Gram –ve strain; read-out: Minimum inhibitory concentrations (MIC, µM) E. coli ATCC 25,922
Description: Anti-bacterial activity of the recently synthesized compounds 3a-k was evaluated at AUMC (Assiut University Mycological Centre), Assiut, Egypt. Assays were done against Gram-negative strains of K. pneumoniae (ATCC 100310, E. coli (ATCC 25922), Pseudomonas aeruginosa (ATCC 27853) and the Gram-positive S. aureus (ATCC 6538) strain utilizing standard agar cup diffusion method. The isolates from the four bacterial species examined were kept in TSB (Trypticase Soya Broth, Becton and Dickinson) with 10% glycerol at -70 °C and then subcultured on TSA (Trypticase Soya Agar, Becton and Dickinson) and TSB for 24 h at 37 °C former to inoculation. Bacterial isolates were then plated on sterile petri plates with 1 × 10^8 CFU/mL (0.5 McFarland turbidity) and 20 mL of Mueller Hinton Agar media (Oxoid) was then loaded. To ensure that the microorganisms were evenly dispersed, the plates were gently rotated before being left to harden on a level surface. Four equally spaced spherical-shaped wells (10 mm diameter) were painstakingly drilled using a sterilized cork bore after media solidification. All tested compounds under test underwent two-fold serial dilutions in a sequential manner. Three replications of 100 µL of each concentration were added to a well using a micropipette. Plates were then incubated for 24-hour at 37 °C. The average of the inhibition zones was then calculated. To determine the MICs, the natural logarithm of each diluted test substance’s concentration was plotted against the average area of the related inhibition zone. Following that, a regression line was created and the intercept on the ‘ln concentration” axis was determined, and the antilogarithm was calculated to indicate the MIC value[34],[63].

MDA-MB-468 = test: NCI single-dose growth inhibition screen; format: cell-based; details: Homo sapiens; Breast Cancer MDA-MB-468; single dose 10^−5 M
UO-31 = test: NCI single-dose growth inhibition screen; format: cell-based, human; details: single dose 10^−5 M

O=C(O)c1cn(C2CC2)c2cc(N3CCN(C(=O)CCCN4C(=O)SC(=Cc5ccccc5)C4=O)CC3)c(F)cc2c1=O [3a, 7-[4-[4-[5-benzylidene-2,4-dioxo-thiazolidin-3-yl]butanoyl]piperazin-1-yl]-1-cyclopropyl-6-fluoro-4-oxo-quinoline-3-carboxylic acid]
inhibition at 10 µM (SK-MEL-28): 9%
inhibition at 10 µM (RXF 393): < 0%
inhibition at 10 µM (NCI-H322M): 9.4%
inhibition at 10 µM (DU-145): < 0%
viability at 0.4 µM ([1]; A498): 103%
viability at 1.6 µM ([1]; A498): 92.7%
viability at 25 µM ([1]; A498): 69.3%
viability at 100 µM ([1]; A498): 56.1%
IC50 ([1]; A498, read-out: In vitro cytotoxicity (IC50) A498 cell line (µM ± SEM)): > 150 µM
inhibition at 10 µM (IGROV1): 8.5%
inhibition at 10 µM (A549/ATCC): 14.2%
inhibition at 10 µM (K-562): 22.5%
inhibition at 10 µM (HOP-62): < 0%
inhibition at 10 µM (NCI-H522): 27.4%
inhibition at 10 µM (SK-MEL-2): 10.1%
inhibition at 10 µM (HL-60(TB)): < 0%
inhibition at 10 µM (OVCAR-4): 2.5%
MIC (S. aureus ATCC 6538): > 20 µM
inhibition at 10 µM (SK-MEL-5): 24.6%
IC50 (topoisomerase IIβ): 35.6 ± 1.94 µM
inhibition at 10 µM (UACC-257): 21.1%
inhibition at 10 µM (MDA-MB-435): 7.8%
MIC (E. coli ATCC 25,922): 0.2 µM (≈ 0.121 µg/mL)
inhibition at 10 µM (MDA-MB-468): 12.9%
inhibition at 10 µM (UO-31; Homo sapiens, UO-31, Renal Cancer UO-31): 53.2%
Growth Inhibition (%) (UO-31; Renal Cancer UO-31): 36.0%
